Key:
Assay in all cases: Radiolabeled ATP kinase assay, panel of 371 kinases (Table S6)
Type in all cases: biochemical
[1] = target: T1, panel of 371 human kinases (Homo sapiens, UniProt P11362); conditions: FGFR1; 0.1 μM; 10 μM ATP; read-out: % Enzyme Activity (relative to DMSO controls)
T1 construct: purchased Reaction Biology Corp
Description: (§1) ; FIG. 38C). […]. Further targeted analyses, such as genetic knock-down or knock-out, may be warranted to parse the role of these additional kinases in our model of neurodegeneration.

[2] = target: T2, panel of 371 human kinases (Homo sapiens, UniProt O75116); conditions: ROCK2; 0.1 μM; 10 μM ATP; read-out: % Enzyme Activity (relative to DMSO controls)
T2 construct: purchased Reaction Biology Corp
Description: as §1

[3] = target: T3, panel of 371 human kinases (Homo sapiens, UniProt P41279); conditions: COT1/MAP3K8; 0.1 μM; 10 μM ATP; read-out: % Enzyme Activity (relative to DMSO controls)
T3 construct: purchased Reaction Biology Corp
Description: as §1

[4] = target: T4, panel of 371 human kinases (Homo sapiens, UniProt P49761); conditions: CLK3; 0.1 μM; 10 μM ATP; read-out: % Enzyme Activity (relative to DMSO controls)
T4 construct: purchased Reaction Biology Corp
Description: as §1

[5] = target: T5, panel of 371 human kinases (Homo sapiens, UniProt O00238); conditions: ALK6/BMPR1B; 0.1 μM; 10 μM ATP; read-out: % Enzyme Activity (relative to DMSO controls)
T5 construct: purchased Reaction Biology Corp
Description: as §1

[6] = target: T6, panel of 371 human kinases (Homo sapiens, UniProt O60285); conditions: ARK5/NUAK1; 0.1 μM; 10 μM ATP; read-out: % Enzyme Activity (relative to DMSO controls)
T6 construct: purchased Reaction Biology Corp
Description: as §1

[7] = target: T7, panel of 371 human kinases (Homo sapiens, UniProt Q9HCP0); conditions: CK1g1; 0.1 μM; 10 μM ATP; read-out: % Enzyme Activity (relative to DMSO controls)
T7 construct: purchased Reaction Biology Corp
Description: as §1

[8] = target: T8, panel of 371 human kinases (Homo sapiens, UniProt P22455); conditions: FGFR4; 0.1 μM; 10 μM ATP; read-out: % Enzyme Activity (relative to DMSO controls)
T8 construct: purchased Reaction Biology Corp
Description: as §1

[9] = target: T9, panel of 371 human kinases (Homo sapiens, UniProt P31751); conditions: AKT2; 0.1 μM; 10 μM ATP; read-out: % Enzyme Activity (relative to DMSO controls)
T9 construct: purchased Reaction Biology Corp
Description: as §1

[10] = target: T10, panel of 371 human kinases (Homo sapiens, UniProt Q02156); conditions: PKCepsilon; 0.1 μM; 10 μM ATP; read-out: % Enzyme Activity (relative to DMSO controls)
T10 construct: purchased Reaction Biology Corp
Description: as §1

[11] = target: T11, panel of 371 human kinases (Homo sapiens, UniProt P43250); conditions: GRK6; 0.1 μM; 10 μM ATP; read-out: % Enzyme Activity (relative to DMSO controls)
T11 construct: purchased Reaction Biology Corp
Description: as §1

[12] = target: T12, panel of 371 human kinases (Homo sapiens, UniProt P51817); conditions: PRKX; 0.1 μM; 10 μM ATP; read-out: % Enzyme Activity (relative to DMSO controls)
T12 construct: purchased Reaction Biology Corp
Description: as §1

[13] = target: T13, panel of 371 human kinases (Homo sapiens, UniProt Q04759); conditions: PKCtheta; 0.1 μM; 10 μM ATP; read-out: % Enzyme Activity (relative to DMSO controls)
T13 construct: purchased Reaction Biology Corp
Description: as §1

[14] = target: T14, panel of 371 human kinases (Homo sapiens, UniProt Q9P0L2); conditions: MARK1; 0.1 μM; 10 μM ATP; read-out: % Enzyme Activity (relative to DMSO controls)
T14 construct: purchased Reaction Biology Corp
Description: as §1

[15] = target: T15, panel of 371 human kinases (Homo sapiens, UniProt P49760); conditions: CLK2; 0.1 μM; 10 μM ATP; read-out: % Enzyme Activity (relative to DMSO controls)
T15 construct: purchased Reaction Biology Corp
Description: as §1

[16] = target: T16, panel of 371 human kinases (Homo sapiens, UniProt O75582); conditions: MSK1/RPS6KA5; 0.1 μM; 10 μM ATP; read-out: % Enzyme Activity (relative to DMSO controls)
T16 construct: purchased Reaction Biology Corp
Description: as §1

[17] = target: T17, panel of 371 human kinases (Homo sapiens, UniProt Q02750); conditions: MEK1; 0.1 μM; 10 μM ATP; read-out: % Enzyme Activity (relative to DMSO controls)
T17 construct: purchased Reaction Biology Corp
Description: as §1

[18] = target: T18, panel of 371 human kinases (Homo sapiens, UniProt Q05513); conditions: PKCzeta; 0.1 μM; 10 μM ATP; read-out: % Enzyme Activity (relative to DMSO controls)
T18 construct: purchased Reaction Biology Corp
Description: as §1

[19] = target: T19, panel of 371 human kinases (Homo sapiens, UniProt Q16620); conditions: TRKB; 0.1 μM; 10 μM ATP; read-out: % Enzyme Activity (relative to DMSO controls)
T19 construct: purchased Reaction Biology Corp
Description: as §1

[20] = target: T20, panel of 371 human kinases (Homo sapiens, UniProt P22612); conditions: PKAcg; 0.1 μM; 10 μM ATP; read-out: % Enzyme Activity (relative to DMSO controls)
T20 construct: purchased Reaction Biology Corp
Description: as §1

[21] = target: T21, panel of 371 human kinases (Homo sapiens, UniProt P08631); conditions: HCK; 0.1 μM; 10 μM ATP; read-out: % Enzyme Activity (relative to DMSO controls)
T21 construct: purchased Reaction Biology Corp
Description: as §1

[22] = target: T22, panel of 371 human kinases (Homo sapiens, UniProt Q9UBE8); conditions: NLK; 0.1 μM; 10 μM ATP; read-out: % Enzyme Activity (relative to DMSO controls)
T22 construct: purchased Reaction Biology Corp
Description: as §1

[23] = target: T23, panel of 371 human kinases (Homo sapiens, UniProt Q9HBY8); conditions: SGK2; 0.1 μM; 10 μM ATP; read-out: % Enzyme Activity (relative to DMSO controls)
T23 construct: purchased Reaction Biology Corp
Description: as §1

[24] = target: T24, panel of 371 human kinases (Homo sapiens, UniProt O75914); conditions: PAK3; 0.1 μM; 10 μM ATP; read-out: % Enzyme Activity (relative to DMSO controls)
T24 construct: purchased Reaction Biology Corp
Description: as §1

T4 sequence (P49761 whole entry): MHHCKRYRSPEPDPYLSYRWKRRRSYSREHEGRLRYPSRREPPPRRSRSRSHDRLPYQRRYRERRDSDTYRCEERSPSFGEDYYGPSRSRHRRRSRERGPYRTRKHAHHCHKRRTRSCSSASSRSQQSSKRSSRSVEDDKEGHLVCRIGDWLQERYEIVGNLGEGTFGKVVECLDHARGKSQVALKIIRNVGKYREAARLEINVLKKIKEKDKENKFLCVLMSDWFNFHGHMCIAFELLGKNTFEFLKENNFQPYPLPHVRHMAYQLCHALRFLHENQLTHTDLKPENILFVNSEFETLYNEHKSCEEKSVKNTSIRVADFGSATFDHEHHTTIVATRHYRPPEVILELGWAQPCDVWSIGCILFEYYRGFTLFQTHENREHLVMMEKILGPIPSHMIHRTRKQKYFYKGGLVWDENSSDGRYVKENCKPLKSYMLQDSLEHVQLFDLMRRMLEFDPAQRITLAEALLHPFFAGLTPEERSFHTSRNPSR
T16 sequence (O75582 whole entry): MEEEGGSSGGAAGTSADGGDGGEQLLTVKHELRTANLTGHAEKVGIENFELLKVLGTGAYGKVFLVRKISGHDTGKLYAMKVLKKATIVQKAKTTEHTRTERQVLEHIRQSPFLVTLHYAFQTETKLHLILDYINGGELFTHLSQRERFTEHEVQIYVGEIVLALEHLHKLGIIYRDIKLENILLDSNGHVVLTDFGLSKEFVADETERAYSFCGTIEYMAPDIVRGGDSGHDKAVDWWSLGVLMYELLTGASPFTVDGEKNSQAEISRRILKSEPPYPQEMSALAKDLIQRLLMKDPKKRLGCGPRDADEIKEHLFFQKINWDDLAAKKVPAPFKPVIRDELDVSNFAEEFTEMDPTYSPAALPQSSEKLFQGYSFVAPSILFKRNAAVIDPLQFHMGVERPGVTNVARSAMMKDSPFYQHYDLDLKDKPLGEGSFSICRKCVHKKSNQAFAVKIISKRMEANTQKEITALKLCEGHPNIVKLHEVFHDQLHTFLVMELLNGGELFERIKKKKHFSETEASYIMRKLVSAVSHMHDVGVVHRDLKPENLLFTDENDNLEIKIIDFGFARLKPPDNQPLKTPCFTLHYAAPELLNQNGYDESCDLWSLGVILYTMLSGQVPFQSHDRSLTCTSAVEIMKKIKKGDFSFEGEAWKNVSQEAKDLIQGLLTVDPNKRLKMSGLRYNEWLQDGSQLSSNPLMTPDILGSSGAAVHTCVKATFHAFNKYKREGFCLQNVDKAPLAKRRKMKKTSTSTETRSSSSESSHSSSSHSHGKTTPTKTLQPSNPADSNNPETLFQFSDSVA
T5 sequence (O00238 14-502): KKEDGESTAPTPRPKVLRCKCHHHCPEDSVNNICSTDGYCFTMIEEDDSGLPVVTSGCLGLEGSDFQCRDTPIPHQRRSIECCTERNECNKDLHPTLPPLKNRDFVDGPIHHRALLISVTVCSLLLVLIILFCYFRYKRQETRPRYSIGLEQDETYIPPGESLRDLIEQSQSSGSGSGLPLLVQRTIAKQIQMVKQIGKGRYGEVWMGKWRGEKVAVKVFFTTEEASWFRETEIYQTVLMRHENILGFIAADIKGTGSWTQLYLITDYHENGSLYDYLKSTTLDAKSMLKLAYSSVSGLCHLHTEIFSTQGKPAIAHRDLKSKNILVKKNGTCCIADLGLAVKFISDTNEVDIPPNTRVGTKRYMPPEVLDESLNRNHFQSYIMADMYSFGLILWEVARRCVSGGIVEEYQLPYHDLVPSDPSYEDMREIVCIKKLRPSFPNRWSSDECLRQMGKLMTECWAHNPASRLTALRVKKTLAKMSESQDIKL
T21 sequence (P08631 whole entry): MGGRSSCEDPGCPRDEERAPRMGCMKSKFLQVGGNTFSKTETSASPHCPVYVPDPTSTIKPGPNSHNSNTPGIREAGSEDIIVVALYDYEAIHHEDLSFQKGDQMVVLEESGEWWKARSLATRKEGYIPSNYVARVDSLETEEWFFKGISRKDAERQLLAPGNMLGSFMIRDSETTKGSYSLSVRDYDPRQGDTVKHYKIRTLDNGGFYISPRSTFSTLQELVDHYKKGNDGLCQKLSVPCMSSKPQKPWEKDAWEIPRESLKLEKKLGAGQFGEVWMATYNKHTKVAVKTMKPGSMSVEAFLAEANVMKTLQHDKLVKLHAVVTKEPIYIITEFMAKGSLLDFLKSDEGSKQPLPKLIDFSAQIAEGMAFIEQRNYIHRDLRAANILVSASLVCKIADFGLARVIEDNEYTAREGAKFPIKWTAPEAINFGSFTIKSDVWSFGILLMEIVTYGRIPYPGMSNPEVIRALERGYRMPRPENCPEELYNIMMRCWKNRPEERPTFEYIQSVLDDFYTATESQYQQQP
T15 sequence (P49760 whole entry): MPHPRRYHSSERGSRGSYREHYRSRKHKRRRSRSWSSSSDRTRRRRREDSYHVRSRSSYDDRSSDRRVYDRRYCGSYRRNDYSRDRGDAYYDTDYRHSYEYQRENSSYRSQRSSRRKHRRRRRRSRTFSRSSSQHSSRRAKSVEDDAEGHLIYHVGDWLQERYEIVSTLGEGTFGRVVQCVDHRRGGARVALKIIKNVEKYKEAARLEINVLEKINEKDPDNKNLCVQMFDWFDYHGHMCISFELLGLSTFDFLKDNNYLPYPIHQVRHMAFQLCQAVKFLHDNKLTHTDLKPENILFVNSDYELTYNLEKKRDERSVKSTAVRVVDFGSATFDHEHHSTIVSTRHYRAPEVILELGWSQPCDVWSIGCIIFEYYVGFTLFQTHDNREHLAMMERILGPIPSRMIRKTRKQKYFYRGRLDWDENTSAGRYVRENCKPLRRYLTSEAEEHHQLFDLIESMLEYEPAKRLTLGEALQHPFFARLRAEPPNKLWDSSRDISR
T7 sequence (Q9HCP0 whole entry): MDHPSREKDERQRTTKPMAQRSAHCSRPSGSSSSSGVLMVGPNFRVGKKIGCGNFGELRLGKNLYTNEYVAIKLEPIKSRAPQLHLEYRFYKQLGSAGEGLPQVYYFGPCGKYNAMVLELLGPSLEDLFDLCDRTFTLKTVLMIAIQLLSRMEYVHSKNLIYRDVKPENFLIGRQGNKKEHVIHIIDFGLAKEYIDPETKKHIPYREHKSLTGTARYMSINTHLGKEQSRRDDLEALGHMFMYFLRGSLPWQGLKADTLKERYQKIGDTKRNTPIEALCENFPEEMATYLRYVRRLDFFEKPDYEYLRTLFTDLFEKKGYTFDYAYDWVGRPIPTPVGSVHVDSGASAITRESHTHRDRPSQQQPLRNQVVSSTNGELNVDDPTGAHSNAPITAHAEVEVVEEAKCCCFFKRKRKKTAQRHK
T24 sequence (O75914 whole entry): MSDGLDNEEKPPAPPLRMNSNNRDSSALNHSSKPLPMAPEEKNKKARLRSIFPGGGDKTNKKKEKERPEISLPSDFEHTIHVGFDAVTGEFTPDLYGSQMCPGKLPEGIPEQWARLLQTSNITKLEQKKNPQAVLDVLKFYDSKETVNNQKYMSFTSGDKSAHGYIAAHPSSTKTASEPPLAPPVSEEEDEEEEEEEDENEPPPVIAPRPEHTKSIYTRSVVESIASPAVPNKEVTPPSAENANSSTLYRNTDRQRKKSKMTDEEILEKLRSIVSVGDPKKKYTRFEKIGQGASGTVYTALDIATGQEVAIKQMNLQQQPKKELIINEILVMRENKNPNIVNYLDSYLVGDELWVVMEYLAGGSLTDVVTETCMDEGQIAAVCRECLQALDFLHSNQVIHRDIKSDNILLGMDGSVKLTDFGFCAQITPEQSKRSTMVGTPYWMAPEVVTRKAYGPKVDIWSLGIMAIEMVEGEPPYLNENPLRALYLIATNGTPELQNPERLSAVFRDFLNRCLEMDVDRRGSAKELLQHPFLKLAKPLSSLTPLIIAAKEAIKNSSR
T12 sequence (P51817 whole entry): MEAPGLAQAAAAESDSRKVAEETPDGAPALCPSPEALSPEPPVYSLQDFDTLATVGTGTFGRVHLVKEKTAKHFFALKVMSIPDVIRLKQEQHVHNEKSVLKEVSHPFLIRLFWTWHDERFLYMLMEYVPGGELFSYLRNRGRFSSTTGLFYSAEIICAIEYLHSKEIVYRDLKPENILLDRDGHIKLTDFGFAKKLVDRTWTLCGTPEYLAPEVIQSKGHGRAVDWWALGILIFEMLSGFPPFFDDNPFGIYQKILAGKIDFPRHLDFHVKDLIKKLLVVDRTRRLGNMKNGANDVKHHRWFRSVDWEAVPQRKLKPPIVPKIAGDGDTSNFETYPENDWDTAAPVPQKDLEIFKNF
T1 sequence (P11362 22-822): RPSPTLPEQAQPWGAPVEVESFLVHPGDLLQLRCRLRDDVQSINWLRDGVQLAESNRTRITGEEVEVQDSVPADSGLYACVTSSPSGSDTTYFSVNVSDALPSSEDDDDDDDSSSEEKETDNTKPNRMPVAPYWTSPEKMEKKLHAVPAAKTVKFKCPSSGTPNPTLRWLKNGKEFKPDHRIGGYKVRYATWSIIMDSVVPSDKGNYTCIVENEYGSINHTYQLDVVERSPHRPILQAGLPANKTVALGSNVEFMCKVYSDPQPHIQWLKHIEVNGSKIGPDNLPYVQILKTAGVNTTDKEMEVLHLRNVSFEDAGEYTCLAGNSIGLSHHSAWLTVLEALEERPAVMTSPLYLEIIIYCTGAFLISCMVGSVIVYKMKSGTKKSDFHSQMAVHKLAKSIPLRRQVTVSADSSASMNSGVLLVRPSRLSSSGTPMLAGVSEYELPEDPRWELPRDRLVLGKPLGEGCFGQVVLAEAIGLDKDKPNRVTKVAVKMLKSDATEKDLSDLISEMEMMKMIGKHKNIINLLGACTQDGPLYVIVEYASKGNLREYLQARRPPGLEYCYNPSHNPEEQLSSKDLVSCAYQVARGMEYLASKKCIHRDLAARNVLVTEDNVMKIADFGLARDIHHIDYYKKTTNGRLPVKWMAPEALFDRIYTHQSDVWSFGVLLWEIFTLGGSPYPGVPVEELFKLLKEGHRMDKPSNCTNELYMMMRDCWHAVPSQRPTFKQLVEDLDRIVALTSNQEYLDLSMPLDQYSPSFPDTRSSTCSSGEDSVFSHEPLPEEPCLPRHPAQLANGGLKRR

Compound | remaining activity at 0.1 µM [1] [%] | remaining activity at 0.1 µM [2] [%] | remaining activity at 0.1 µM [3] [%] | remaining activity at 0.1 µM [4] [%] | remaining activity at 0.1 µM [5] [%] | remaining activity at 0.1 µM [6] [%] | remaining activity at 0.1 µM [7] [%] | remaining activity at 0.1 µM [8] [%] | remaining activity at 0.1 µM [9] [%] | remaining activity at 0.1 µM [10] [%] | remaining activity at 0.1 µM [11] [%] | remaining activity at 0.1 µM [12] [%] | remaining activity at 0.1 µM [13] [%] | remaining activity at 0.1 µM [14] [%] | remaining activity at 0.1 µM [15] [%] | remaining activity at 0.1 µM [16] [%] | remaining activity at 0.1 µM [17] [%] | remaining activity at 0.1 µM [18] [%] | remaining activity at 0.1 µM [19] [%] | remaining activity at 0.1 µM [20] [%] | also measured
CN1CCN(Cc2ccc(-c3cnc4[nH]cc(-c5ccc6[nH]ccc6c5)c4c3)cc2)CC1 [Compound 1, 3-(1H-Indol-5-yl)-5-(4-((4-methylpiperazin-1-yl)methyl)phenyl)-1H-pyrrolo[2,3-b]pyridine, reference compound] | 93.9 | 71.1 | 101 | 95.3 | 116 | 26.9 | 143 | 97.2 | 96.7 | 110 | 91.5 | 95.5 | 90.8 | 86.2 | 48.2 | 101 | 111 | 93.6 | 59.3 | 102 | remaining activity at 0.1 µM [21]: 110%; remaining activity at 0.1 µM [22]: 101%; remaining activity at 0.1 µM [23]: 92.8%; remaining activity at 0.1 µM [24]: 97.3%
OCCN1CCN(Cc2ccc(-c3cnc4[nH]cc(-c5cccc(Cl)c5)c4c3)cc2)CC1 [Compound 12k, 2-(4-(4-(3-(3-Chlorophenyl)-1H-pyrrolo[2,3-b]pyridin-5-yl)benzyl)piperazin-1-yl)ethan-1-ol] | 95 | 55.6 | 87.5 | 91 | 125 | 14.4 | 116 | 100 | 103 | 98.6 | 95.2 | 96.1 | 94.6 | 52.5 | 55.8 | 98.4 | 92.7 | 97.7 | 77.4 | 99.4 | remaining activity at 0.1 µM [21]: 95.8%; remaining activity at 0.1 µM [22]: 94.3%; remaining activity at 0.1 µM [23]: 96.7%; remaining activity at 0.1 µM [24]: 90.8%
